Entries after “also recorded” stand apart in the source; their conditions may differ. Like-named read-outs stand apart in the source and are kept apart here.
Legend:
[1] = 13-week toxicity and pharmacokinetic study in SD rats with 4-week recovery (Example 5); format: in vivo; conditions: rat, in vivo; for AUC(0-t): SD, po, read-out: AUC0-24 h; for NOAEL at 13 weeks: oral, read-out: NOAEL (no observed adverse effect level)
Procedure: (§1) Sample to test: Solid dispersion of Compound I (Compound I:PVPK30=1:8 (w/w))
(§2) Animals: SD Rats, SPF Level.
(§3) Two hundred and twenty SD rats were used in the studies. Three groups, i.e., high dose group, intermediate dose group and low dose group, were administered with Compound I with following doses, 20 males and 20 females for each group. In specific, male animals were given the suspension at the doses of 3, 9 and 30 mg/kg/day, respectively, while the females were administered at the doses of 1, 3, and 10 mg/kg/day, respectively. The animals in the control group, 20 males and 20 females, were given purified water. All animals fasted overnight before blood collections and anatomical examinations.
(§4) In addition, for the pharmacokinetic study, 9 males and 9 females were assigned into the administration group, while 3 males and 3 females were for the control group.

SD rats = test: as above; format: in vivo; conditions: 13 weeks
Procedure: as §1, §2, §3, §4

[2] = Safety, tolerability and pharmacokinetics in patients having chronic kidney disease (Example 9); format: in vivo, human; conditions: human, plasma, oral, CKD patients
From the text: (§5) The patients in this example were those having chronic kidney disease with symptoms of renal failure, proteinuria, acute kidney injury, glomerular nephritis, renal cyst, urinary frequency, renal calculus, obstructive uropathy, and etc. These patients also had other diseases or implications such as diabetes mellitus, hyperlipidemia, hypercholesterolemia, hypertension, peripheral vascular diseases, coronary artery disease, and etc.
(§6) These patients continued to take the medications that they had prior to the present clinical trial, the medications being, for example, angiotensin converting enzyme inhibitors, such as Lisinopril, Benazepril, Enalapril, and Enalapril Maleate; angiotensin II receptor blockers, such as Valsartan and Losartan; calcium channel blockers, such as Amlodipine, and Nifedipine; diuretics, such as Furosemide; beta-receptor blockers, such as Metoprolol succinate, Metoprolol tartrate, Carvedilol, and Atenolol; and antilipemic drugs, such as Simvastatin, Atorvastatin, Fenofibrate, Pravastatin, and Rosuvastatin.
(§7) In this example, the administration dose referred to the amount of Compound I, although the pharmaceutical composition was administered. Two groups of subjects were administered once a day for 56 consecutive days at the daily doses of 0.5 mg (1 capsule for each administration, 0.5 mg of Compound I per capsule) and 2.5 mg (1 capsule for each administration, 2.5 mg of Compound I per capsule), respectively, with 6 subjects for the 0.5 mg/day dose group and also 6 for the 2.5 mg/day dose group. The capsules used here were the capsules prepared in Example 2, i.e., the capsules of Capsule formulation 3 (the capsule with 0.5 mg of Compound I), and Capsule formulation 4 (the capsule containing 2.5 mg of Compound I).
(§8) Plasma samples were collected to measure plasma drug concentration, and the pharmacokinetic parameters were analyzed using the non-compartment model. Serum samples were collected to measure serum potassium levels.

[3] = tested on: patients having chronic kidney disease; test: as above; format: in vivo, human; conditions: CKD patients; for UACR decreased: at the 8th week; for Predicated AUCtau: predicted from the 0.5 mg/day group
From the text: as §5, §6, §7, §8

[4] = Water solubility and permeation of Compound I (statement); format: physicochemical

## N#Cc1ccc(N2N=C3c4ccc(C(=O)N5CCC(O)CC5)nc4CC[C@@H]3[C@@H]2C2CCCC2)cc1Cl [Compound I, 2-chloro-4-[(3S,3aR)-3-cyclopentyl-7-(4-hydroxylpiperidine-1-carbonyl)-3,3a,4,5-tetrahydro-2H-pyrazolo[3,4-f]quinolin-2-yl]benzonitrile]
[1]; female, 1 mg/kg/day, female SD rats, 1 mg/kg/day intragastric, 13 weeks
  AUC(0-t): 4080 ng·h/mL
[1]; female, 3 mg/kg/day, female SD rats, 3 mg/kg/day intragastric, 13 weeks
  AUC(0-t): 15500 ng·h/mL
[1]; female, 10 mg/kg/day, female SD rats, 10 mg/kg/day intragastric, 13 weeks
  AUC(0-t): 43600 ng·h/mL
[1]; male, 3 mg/kg/day, male SD rats, 3 mg/kg/day intragastric, 13 weeks
  AUC(0-t): 5430 ng·h/mL
[1]; male, 9 mg/kg/day, male SD rats, 9 mg/kg/day intragastric, 13 weeks
  AUC(0-t): 16500 ng·h/mL
[1]; male, 30 mg/kg/day, male SD rats, 30 mg/kg/day intragastric, 13 weeks (steady-state)
  AUC(0-t): 49900 ng·h/mL
[1]; female SD rats, 13 weeks
  NOAEL at 13 weeks: 10 mg/kg/day
[1]; male SD rats, 13 weeks
  NOAEL at 13 weeks: 30 mg/kg/day
SD rats; SD rats, high dose/NOAEL (male 30, female 10 mg/kg/day)
  serum potassium level (observation): no obvious abnormal serum potassium level was observed; also recorded: serum potassium level was not elevated
SD rats; female SD rats, 1 mg/kg/day intragastric
  K+ (Mean ± SD): 4.4 ± 0.4 mmol/L
SD rats; female SD rats, 3 mg/kg/day intragastric
  K+ (Mean ± SD): 4.4 ± 0.3 mmol/L
SD rats; female SD rats, 10 mg/kg/day intragastric
  K+ (Mean ± SD): 4.5 ± 0.2 mmol/L
SD rats; male SD rats, 3 mg/kg/day intragastric
  K+ (Mean ± SD): 5.0 ± 0.3 mmol/L
SD rats; male SD rats, 9 mg/kg/day intragastric
  K+ (Mean ± SD): 5.0 ± 0.3 mmol/L
SD rats; male SD rats, 30 mg/kg/day intragastric
  K+ (Mean ± SD): 5.1 ± 0.2 mmol/L
SD rats; male SD rats, high dose 30 mg/kg/day
  side effects (observation): No obvious side effect was observed
[2]; 0.5 mg, mean AUC plus the standard deviation at 0.5 mg, read-out: upper limit of AUC that is safe
  AUC: 885 ng·h/mL
[2]; 0.5 mg, mean AUC plus twice the standard deviation at 0.5 mg, read-out: upper limit of AUC that is safe
  AUC: 1120 ng·h/mL
[2]; 0.5 mg/day, administered for one day at 0.5 mg/day, read-out: steady-state AUCtau
  AUC: ≥ 106 ng·h/mL
[2]; 0.5 mg/day, multiple doses 0.5 mg/day, read-out: average steady-state AUCtau
  AUC: 652 ± 232 ng·h/mL
[2]; 2.5 mg, mean AUC plus the standard deviation at 2.5 mg, read-out: upper limit of AUC that is safe
  AUC: 2890 ng·h/mL
[2]; 2.5 mg, mean AUC plus twice the standard deviation at 2.5 mg, read-out: upper limit of AUC that is safe
  AUC: 3170 ng·h/mL
[2]; 2.5 mg/day, multiple doses 2.5 mg/day, read-out: average safe steady-state AUCtau
  AUC: 2610 ± 280 ng·h/mL
[3]; 0.5 mg/day
  UACR decreased: 58.9%
[3]; 2.5 mg/day
  UACR decreased: 50.7%
[3]; administered for one day at 0.5 mg/day
  UACR decreased compared to the baseline: ≥ 30.5%
[3]; capsule, multiple doses 2.5 mg daily
  AUC individual variation: highest AUC vs lowest AUC subject: 2.27 times
[3]; capsules, multiple doses 0.5 mg daily
  AUC individual variation: highest AUC vs lowest AUC subject: 2.14 times
[3]; dose 0.1 mg
  Predicated AUCtau: 130.5 ng·h/mL
[3]; dose 0.15 mg
  Predicated AUCtau: 195.8 ng·h/mL
[3]; dose 0.2 mg
  Predicated AUCtau: 261 ng·h/mL
[3]; dose 0.25 mg
  Predicated AUCtau: 326.3 ng·h/mL
[3]; dose 0.3 mg
  Predicated AUCtau: 391.5 ng·h/mL
[3]; dose 1.0 mg
  Predicated AUCtau: 1305 ng·h/mL
[3]; dose 2.0 mg
  Predicated AUCtau: 2610 ng·h/mL
[3]; dose 2.5 mg
  Predicated AUCtau: 3262.5 ng·h/mL
[3]; multiple doses 0.5 mg/day
  serum potassium level (observation): no elevated serum potassium level was observed
[3]; multiple doses 0.5 mg/day or 2.5 mg/day
  blood pressures and UACR (observation): significantly decrease in blood pressures and urine albumin-to-creatinine ratio (UACR)
[3]; multiple doses 2.5 mg/day
  serum potassium level (observation): serum potassium levels were elevated; also recorded: mild increase of the serum potassium level was observed in one subject; also recorded: In one subject, the serum potassium level slightly increased
[4]
  permeation rate: medium
  solubility in water: insoluble in water
